Experimental data: PubChem BioAssay AID192 (DTP/NCI, 2004)
Values joined by “and” are separate entries in the source; they are usually repeats but may differ in a detail not shown here. Equal entries are not always repeated. Toxic doses and inconclusive results are not listed. How the source made its calls: active means survival T/C of 150% or more; inactive means T/C below 125% in these data. Peptide text beside a SMILES is read from it. * marks the point of attachment. Cbz = O=C(OCc1ccccc1)*

Test system: BDF1 mice, B16 melanoma ip, median survival T/C
Experiment: NCI In Vivo Anticancer Drug Screen. Data for tumor model B16 Melanoma (intraperitoneal) in B6D2F1 (BDF1) mice
Conditions: endpoint: median survival time, higher = longer survival
In short: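 Compounds were tested in mice carrying transplantable tumors. Survival or tumor size was recorded, and each value is the treated-group measurement (T) divided by that of the vehicle-treated control group (C).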

[1] = dose: 50.0 mg/kg/injection, schedule: Q01DX009 (ip), vehicle: Klucel (hydroxypropylcellulose) (HPC)
[2] = dose: 100.0 mg/kg/injection, schedule: Q01DX009 (ip), vehicle: Klucel (hydroxypropylcellulose) (HPC)
[3] = dose: 200.0 mg/kg/injection, schedule: Q01DX009 (ip), vehicle: Klucel (hydroxypropylcellulose) (HPC)
[4] = dose: 12.5 mg/kg/injection, schedule: Q01DX009 (ip), vehicle: saline with Tween-80
[5] = dose: 25.0 mg/kg/injection, schedule: Q01DX009 (ip), vehicle: saline with Tween-80
[6] = dose: 50.0 mg/kg/injection, schedule: Q01DX009 (ip), vehicle: saline with Tween-80
[7] = dose: 100.0 mg/kg/injection, schedule: Q01DX009 (ip), vehicle: saline with Tween-80

Measured: T/C

CCN(CC)CCNc1ccc(CO)c2sc3ccccc3c(=O)c12
inactive: dose: 0.25 mg/kg/injection, schedule: Q01DX009 (ip), vehicle: saline 100 % of control | dose: 0.5 mg/kg/injection, schedule: Q01DX009 (ip), vehicle: saline 94 % of control | dose: 1.0 mg/kg/injection, schedule: Q01DX009 (ip), vehicle: saline 89 % of control | dose: 2.0 mg/kg/injection, schedule: Q01DX009 (ip), vehicle: saline 100 % of control | dose: 2.4 mg/kg/injection, schedule: Q01DX009 (ip), vehicle: saline with Tween-80 89 % of control | dose: 4.8 mg/kg/injection, schedule: Q01DX009 (ip), vehicle: saline with Tween-80 97 % of control | dose: 9.5 mg/kg/injection, schedule: Q01DX009 (ip), vehicle: saline with Tween-80 105 % of control | dose: 19.0 mg/kg/injection, schedule: Q01DX009 (ip), vehicle: saline with Tween-80 97 % of control | dose: 38.0 mg/kg/injection, schedule: Q01DX009 (ip), vehicle: saline with Tween-80 110 % of control

CCN(CC)Cc1ncccc1O
inactive: [1] 107 % of control | [2] 103 % of control

COc1ccc2ccccc2c1C1NC(=O)c2ccccc2N1 (stereo not drawn)
inactive: [1] 106 % of control | [2] 108 % of control | [3] 109 % of control | dose: 400.0 mg/kg/injection, schedule: Q01DX009 (ip), vehicle: Klucel (hydroxypropylcellulose) (HPC) 115 % of control

CC1OC(OCC2OC(Oc3c(-c4ccc(O)c(OS(=O)(=O)O)c4)oc4cc(O)cc(O)c4c3=O)C(O)C(O)C2O)C(O)C(O)C1O (stereo not drawn)
inactive: dose: 4.0 mg/kg/injection, schedule: Q01DX009 (ip), vehicle: saline 101 % of control | dose: 8.0 mg/kg/injection, schedule: Q01DX009 (ip), vehicle: saline 105 % of control | dose: 16.0 mg/kg/injection, schedule: Q01DX009 (ip), vehicle: saline 101 % of control | dose: 32.0 mg/kg/injection, schedule: Q01DX009 (ip), vehicle: saline 100 % of control | dose: 64.0 mg/kg/injection, schedule: Q01DX009 (ip), vehicle: saline 103 % of control

CCOC(=O)CNC(=O)CCCCSc1ncnc2nc[nH]c12
inactive: dose: 20.0 mg/kg/injection, schedule: Q01DX009 (ip), vehicle: Klucel (hydroxypropylcellulose) (HPC) 88 % of control | dose: 40.0 mg/kg/injection, schedule: Q01DX009 (ip), vehicle: Klucel (hydroxypropylcellulose) (HPC) 91 % of control | dose: 80.0 mg/kg/injection, schedule: Q01DX009 (ip), vehicle: Klucel (hydroxypropylcellulose) (HPC) 89 % of control | dose: 160.0 mg/kg/injection, schedule: Q01DX009 (ip), vehicle: Klucel (hydroxypropylcellulose) (HPC) 89 % of control | dose: 320.0 mg/kg/injection, schedule: Q01DX009 (ip), vehicle: Klucel (hydroxypropylcellulose) (HPC) 87 % of control

COC(=O)C(Cl)(Cl)N=Nc1c(Cl)cc(Cl)c(C)c1Cl
inactive: [4] 112 % of control | [5] 106 % of control | [6] 111 % of control | [7] 99 % of control | dose: 200.0 mg/kg/injection, schedule: Q01DX009 (ip), vehicle: saline with Tween-80 97 % of control

Cc1[nH]c(=O)[nH]c(=O)c1NC(=O)c1ccccc1[N+](=O)[O-]
inactive: [4] 100 % of control | [5] 102 % of control | [6] 102 % of control

Cc1cc2c3ccccc3ccc2[n+]2ccccc12
inactive: dose: 6.25 mg/kg/injection, schedule: Q01DX009 (ip), vehicle: saline 95 % of control | dose: 12.5 mg/kg/injection, schedule: Q01DX009 (ip), vehicle: saline 93 % of control

NC(=O)c1ccc[n+](Cc2c(Cl)cccc2Cl)c1
inactive: dose: 0.75 mg/kg/injection, schedule: Q01DX009 (ip), vehicle: saline 99 % of control | dose: 1.5 mg/kg/injection, schedule: Q01DX009 (ip), vehicle: saline 96 % of control and 102 % of control | dose: 3.0 mg/kg/injection, schedule: Q01DX009 (ip), vehicle: saline 102 % of control and 111 % of control | dose: 6.0 mg/kg/injection, schedule: Q01DX009 (ip), vehicle: saline 98 % of control | dose: 12.0 mg/kg/injection, schedule: Q01DX009 (ip), vehicle: saline 98 % of control and 99 % of control | dose: 24.0 mg/kg/injection, schedule: Q01DX009 (ip), vehicle: saline 105 % of control

CCC/C=C/C=C/C1CC(O)C(O)C(=O)C1CO (stereo not drawn)
inactive: [4] 102 % of control | [5] 104 % of control | [6] 90 % of control | [7] 95 % of control

CCCCCCCCNc1cc2c3c(c1)CCCN3CCC2
inactive: dose: 0.75 mg/kg/injection, schedule: Q01DX009 (ip), vehicle: Klucel (hydroxypropylcellulose) (HPC) 88 % of control | dose: 1.5 mg/kg/injection, schedule: Q01DX009 (ip), vehicle: Klucel (hydroxypropylcellulose) (HPC) 97 % of control | dose: 6.0 mg/kg/injection, schedule: Q01DX009 (ip), vehicle: Klucel (hydroxypropylcellulose) (HPC) 90 % of control

c1cn[nH]c1
inactive: [5] 97 % of control | [6] 96 % of control | [7] 91 % of control

O=C(NP(=O)(N1CC1)N1CC1)c1cc(I)ccc1I
inactive: dose: 1.0 mg/kg/injection, schedule: Q02DX009 (ip), vehicle: saline with Tween-80 100 % of control | dose: 1.0 mg/kg/injection, schedule: Q02DX009 (ip), vehicle: saline 104 % of control | dose: 2.0 mg/kg/injection, schedule: Q02DX009 (ip), vehicle: saline with Tween-80 106 % of control | dose: 2.0 mg/kg/injection, schedule: Q02DX009 (ip), vehicle: saline 107 % of control | dose: 4.0 mg/kg/injection, schedule: Q02DX009 (ip), vehicle: saline with Tween-80 93 % of control | dose: 4.0 mg/kg/injection, schedule: Q02DX009 (ip), vehicle: saline 98 % of control | dose: 8.0 mg/kg/injection, schedule: Q02DX009 (ip), vehicle: saline with Tween-80 120 % of control | dose: 8.0 mg/kg/injection, schedule: Q02DX009 (ip), vehicle: saline 112 % of control | dose: 16.0 mg/kg/injection, schedule: Q02DX009 (ip), vehicle: saline 116 % of control | dose: 32.0 mg/kg/injection, schedule: Q02DX009 (ip), vehicle: saline 107 % of control | dose: 64.0 mg/kg/injection, schedule: Q02DX009 (ip), vehicle: saline with Tween-80 92 % of control | dose: 64.0 mg/kg/injection, schedule: Q02DX009 (ip), vehicle: saline 101 % of control

CSCCC(NC(=O)OCC1c2ccccc2-c2ccccc21)C(=O)O (stereo not drawn)
inactive: [1] 103 % of control | [2] 98 % of control | [3] 87 % of control

C[n+]1cc2c3ccccc3c(N)cc2c2ccccc21
inactive: dose: 3.13 mg/kg/injection, schedule: Q01DX009 (ip), vehicle: saline 106 % of control

Cc1ccc[n+](CCc2c[nH]c3ccccc23)c1
inactive: [4] 111 % of control | [5] 99 % of control | [6] 95 % of control

C1CC[N-]CC1.C1CC[N-]CC1.N#C[S-].N#C[S-].[Cu]
inactive: dose: 2.5 mg/kg/injection, schedule: Q04DX003 (ip), vehicle: saline with Tween-80 110 % of control | dose: 5.0 mg/kg/injection, schedule: Q04DX003 (ip), vehicle: saline with Tween-80 93 % of control | dose: 10.0 mg/kg/injection, schedule: Q04DX003 (ip), vehicle: saline with Tween-80 93 % of control

Cc1ccc(S(=O)(=O)N2CCCC(Br)(Br)C(=O)c3ccccc32)cc1
inactive: dose: 25.0 mg/kg/injection, schedule: Q04DX003 (ip), vehicle: Klucel (hydroxypropylcellulose) (HPC) 95 % of control | dose: 50.0 mg/kg/injection, schedule: Q04DX003 (ip), vehicle: Klucel (hydroxypropylcellulose) (HPC) 96 % of control | dose: 100.0 mg/kg/injection, schedule: Q04DX003 (ip), vehicle: Klucel (hydroxypropylcellulose) (HPC) 93 % of control

O=C(NC(Cc1ccccc1)C(=O)NC(CO)C(=O)O)OCc1ccccc1 (stereo not drawn) (Cbz-Phe-Ser-OH; configuration not given here)
inactive: [6] 95 % of control | [7] 90 % of control
